Reference: patent US20220400729A1, “SYNERGISTIC COMBINATION OF BUTYRIC-ACID-PRODUCING PREBIOTICS AND PROBIOTICS” (INNER MONGOLIA YILI INDUSTRIAL GROUP CO., LTD, priority 2019, published 2022)

Tested on: Bifidobacterium lactis HNO19
Test: Growth test of Bifidobacterium lactis HNO19: organic acids in culture broth by HPLC
Assay type: cell-based
Conditions: HNO19 in MRS+0.05% cysteine medium with 1% carbon source, HPLC at 12 hours
Method: Bifidobacterium lactis HNO19 was purchased from Danisco. The strain was cultured in de Man Rogosa Sharpe (MRS) broth (Difco, Detroit, Md.) supplemented with 0.5 g/LL-cysteine and incubated for 24 h at 37° C. under anaerobic conditions. […] After the second passage, the culture was prepared for use as inoculum for the growth tests described below. Various carbon source stock solutions were sterilized by passing through 0.22 micron filters and used at 1% final concentration. […] The contents of lactic acid, acetic acid, propionic acid and butyric acid in the above-mentioned various combined culture broths were measured by high performance liquid chromatography (HPLC) at 12 hours.

Q: How did the “Contents of organic acids in the culture medium: Acetic acid” value turn out when `OC[C@H]1O[C@@H](O[C@@H]2[C@@H](CO)O[C@](O)(CO)[C@H]2O)[C@H](O)[C@@H](O)[C@H]1O` [LOS, 4-O-β-D-galactopyranosyl-4-D-fructose] was run?
A: 0.238 ± 0.002

Q: And the “Contents of organic acids in the culture medium: Lactic acid” value?
A: 0.034 ± 0.002

Q: What about the “Contents of organic acids in the culture medium: Total amount of organic acid” value of the same compound?
A: 0.272 ± 0.004
